# In US12037324B2, “Biarylmethyl heterocycles” (Université de Montréal, priority 2016, dated 2024):
# pEC50: −log10 of the molar value.
# Key:
# hAT1R [1] = molecular target: T1, hAT1R (Homo sapiens, UniProt P30556); test: BRET β-arrestin2 biosensor assay, higher receptor expression (hAT1R 5 ng/well), HEK293 cells; format: cell-based; conditions: for pEC50: High AT1R Expression
# T1 sequence (P30556 1-359): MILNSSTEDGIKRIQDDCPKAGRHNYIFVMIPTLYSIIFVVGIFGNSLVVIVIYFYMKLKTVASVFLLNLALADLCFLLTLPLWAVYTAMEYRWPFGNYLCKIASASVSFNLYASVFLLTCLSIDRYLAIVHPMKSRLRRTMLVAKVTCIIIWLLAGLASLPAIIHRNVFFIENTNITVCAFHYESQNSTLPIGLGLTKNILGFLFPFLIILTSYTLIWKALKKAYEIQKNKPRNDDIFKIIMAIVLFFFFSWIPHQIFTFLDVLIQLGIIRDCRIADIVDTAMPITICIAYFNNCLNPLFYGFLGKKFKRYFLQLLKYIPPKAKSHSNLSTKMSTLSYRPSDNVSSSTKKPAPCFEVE
# AGTR1 [2] = molecular target: T2, AGTR1 (Homo sapiens, UniProt P30556); test: DiscoveRx β-arrestin2 recruitment assay (enzyme complementation, Pathunter CHO-K1 AGTR1 β-arrestin cell line); format: cell-based; conditions: DiscoveRx β-arrestin2 recruitment; for DiscoveRx β-arrestin2 Ymax (%): maximal response
# T2 construct: host or cells: Pathunter CHO-K1 AGTR1 β-arrestin cell line (CHO-K1)
# T2 sequence (P30556 1-359): T1 sequence (P30556 1-359)
# Method in brief: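 Chemiluminescent enzyme-complementation read-out of β-arrestin2 recruitment to AGTR1 in engineered CHO-K1 cells after 90 min compound exposure at 37° C. Values are 4-parameter logistic EC50s in agonist mode, IC50s in antagonist mode, with efficacy relative to the maximal All response.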
# AGTR1 [3] = molecular target: T2, AGTR1; test: DiscoveRx IP1 accumulation assay (HTRF), agonist mode, Pathunter CHO-K1 AGTR1 β-arrestin cell line; format: cell-based; conditions: for pEC50: read-out: IP-1 EC50
# Method in brief: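 Agonist mode in CHO-K1 AGTR1 β-arrestin cells plated 14-16 h before; compounds at varying concentrations for 90 min at 37° C, IP1 accumulation read by HTRF (D2-conjugate and anti-IP1 cryptate, 20 min room temperature). EC50 from 4-parameter logistic fit; activity given as percentage of maximal AII effect.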
# hAT1R [4] = molecular target: T1, hAT1R; test: cell-based; conditions: section of the 42nd table ending at r951, example numbering restarts after the DiscoveRx section; read-out: β-arrestin2 EC50
# hAT1R [5] = molecular target: T1, hAT1R; test: cell-based; conditions: agonist mode; for pEC50: read-out: BRET P63 EC50
SMILES,BRET β-Arrestin2 High AT1R Expression Ymax (%) (hAT1R [1]),pEC50 (hAT1R [1]),pEC50 (AGTR1 [2]),DiscoveRx β-arrestin2 Ymax (%) (AGTR1 [2]),IP-1 Ymax (%) (AGTR1 [3]),pEC50 (AGTR1 [3]),pEC50 (hAT1R [4]),BRET P63 Ymax (hAT1R [5]),pEC50 (hAT1R [5])
CCc1nc2c(C)cc(C)nc2n1Cc1ccc(-c2cc(-c3ccccc3)ccc2-c2nnn[nH]2)cn1 [Example 179],90.6%,7.68,7.39,58.3%,12.2%,7.09,7.21,11.6%,7.28
CCc1nc2c(C)cc(C)nc2n1Cc1ccc(-c2cc(-c3ccc(CO)cc3)ccc2-c2nnn[nH]2)cn1 [Example 180],85.3%,7.29,7.28,40.4%,27.5%,6.64,6.75,14.9%,6.68
"CCc1nc2c(C)cc(C)nc2n1Cc1ccc(-c2cc(-c3cc(C)cc(C)c3)ccc2C(=O)O)cc1 [Example 181, 4″-((2-ethyl-5,7-dimethyl-3H-imidazo[4,5-b]pyridin-3-yl)methyl)-3,5-dimethyl-[1,1′:3′,1″-terphenyl]-4′-carboxylic acid]",94.1%,8.32,7.32,88.8%,6.1%,7.11,7.80,16.1%,7.32
CCc1nc2c(C)cc(C)nc2n1Cc1ccc(-c2cc(-c3ccc(CO)cc3)ccc2C(=O)O)cc1 [Example 183],90.0%,7.20,7.18,36.2%,14.1%,6.70,6.86,13.2%,6.75
CCc1nc2c(C)cc(C)nc2n1Cc1ncc(-c2cc(-c3ccccc3)ccc2-c2nnn[nH]2)cn1 [Example 190],88.8%,7.08,6.86,57.0%,17.5%,6.31,6.81,16.4%,6.36
"CCc1nc2c(C)cc(C)nc2n1Cc1ccc(-c2cc(-c3cccc(C)c3)ccc2C(=O)O)cn1 [Example 195, 3-(6-((2-ethyl-5,7-dimethyl-3H-imidazo[4,5-b]pyridin-3-yl)methyl)pyridin-3-yl)-3′-methylbiphenyl-4-carboxylic acid]",87.0%,7.00,6.16,77.6%,5.3%,6.45,6.55,13.6%,6.58
"CCc1nc2c(C)cc(C)nc2n1Cc1ccc(-c2cc(-c3ccccc3)ccc2C(=O)O)cn1 [Example 196, 3-(6-((2-ethyl-5,7-dimethyl-3H-imidazo[4,5-b]pyridin-3-yl)methyl)pyridin-3-yl)-[1,1′-biphenyl]-4-carboxylic acid]",83.3%,6.21,5.52,50.4%,12.1%,6.06,5.77,7.6%,5.96
"CCc1nc2c(C)cc(C)nc2n1Cc1ccc(-c2cc(Oc3ccccc3)ccc2-c2nnn[nH]2)cc1 [Example 204, 2-Ethyl-5,7-dimethyl-3-((5′-phenoxy-2′-(1H-tetrazol-5-yl)-[1, 1′-biphenyl]-4-yl)methyl)-3H-imidazo[4,5-b]pyridine]",85.9%,8.44,7.58,42.4%,14.4%,7.18,8.01,9.4%,7.97
